Experimental data: patent EP4050002A1, “ANTI-PROLIFERATIVE AGENTS” (First Health Pharmaceuticals B.V., priority 2021, dated 2022)
Like-named read-outs stand apart in the source and are kept apart here.

Experiments:
K562 cell line = test: Cytotoxicity, MTS method; assay type: cell-based; conditions: Homo sapiens, K562, 72 hours of incubation
Method: The anti-tumor activity of the compounds of the present invention was evaluated as the effect on the proliferation and survival of tumor cells by counting the number of living cells in presence or absence of the compounds ("cell count method"), and as the effect on the viability and metabolic activity of the cells, by using particular substrates that are converted by cellular enzymes into coloured or luminescent products, proportionally with metabolic activity and state of the cell, such as the MTS tetrazolium compound ("MTS method") or luciferin ("ATP-based method") respectively.
Cells were seeded at 3 to 5 x 10^4 cells/well density depending on cell lines and maintained at 37°C in 5% CO2. After 24 hours cells were treated with ascending concentrations of the investigational compounds and the reference (5-fluoro-Uracyl) in a range from 0 to 100 µM. […] After 72 h of incubation with compounds, the cells were detached with trypsin and re-suspended in 1 ml of complete medium; the cell number was evaluated using a Z2 Coulter Counter ("cell count method") (Attallah and Johnson, A simple highly sensitive methods for the determination of cell viability using an electronic particle analyzer, Coulter counter J. Immunol. Methods. 1981, 41, 155; Leonardi et al., Activated kinase screening identifies the IKBKE oncogene as a positive regulator of autophagy. Autophagy, 2019, 15, 312). […]

[1] = Tissue distribution in xenograft mice (conditions #1, #1A, #1B); assay type: in vivo, male FOXN1nu/nu nude mice; conditions: for Kp at 4 h: mouse, brain, ip, read-out: Brain to plasma
Method: The pharmacokinetic study was performed in male Swiss albino mice from Hylasco Biotechnology Pvt. Ltd. (A Charles River technology Licensee). The tissue distribution study was performed in male Swiss albino mice and in male FOXN1^nu/nu nude mice (Envigo spa). The efficacy study was performed in male FOXN1^nu/nu nude mice.
At study closure, animals were sacrificed and tumor and tissues removed for further studies of distribution and morphology. Mice from the efficacy study were anesthetized using gaseous anesthesia and blood samples collected in Li-Heparin containing tubes by intracardiac puncture, stored on ice, centrifuged within 15 minutes to separate plasma at 1540 ref (5000 rpm), at 4°C for 10 minutes; plasma was separated and transferred to new tubes. After blood collection, tissues for bio-analyses were separated, washed in PBS, dried and frozen at -80±10°C until homogenization.
The levels of compound in the tissues were quantified by LC-MS/MS as follows.
UHPLC-MS/MS analysis was performed on a Q-Exactive Plus (ThermoFisher Scientific) mass spectrometer coupled with an UHPLC Ultimate 3000SD (ThermoFisher Scientific).
Chromatographic separation of the analytes was performed on an Acquity UPLC BEH Shield RP18 column ([…], 2.1 mm x 50 mm, […]) with a column temperature at 40°C.
The flow rate was 250 µl/min. The mobile phase was a gradient of a mixture of 10 mM ammonium acetate with 0.1% formic acid (phase A) and Acetonitrile:Methanol (50:50 v/v) as phase B. The gradient profile used began with an elution of (A:B) 70:30 v/v for 1 min, followed by a gradual decrease of A to (A:B) 5:95 v/v until 5 min, a constant gradient for 1 min of 95% of B, then a gradual decrease of B to the initial condition until 7 min and then a final conditioning of the column for about 4 min in order to equilibrate for the next injection.
The electrospray ionization source (ESI) was operated in positive mode. Parallel reaction monitoring (PRM) methods was applied to quantify compound 5. The selected transitions m/z 414.20-243.10 for compound 5 and m/z 360.18- 243.12 for the internal standard (compound 4) were considered. Each sample was assayed in duplicate.
Preparation of plasma samples: Mouse plasma (10 µl) was placed into a tube containing 188 µl of a chilled Acetonitrile:Methanol solution (50:50 v/v) in order to precipitate proteins. Each sample was spiked with a fixed concentration (200 nM) of compound 4 used as internal standard. After 1 min of vortex, the mixture was centrifuged at 10,000 x g for 15 minutes at 4 °C to separate the protein material from the supernatant. The last one of each sample was transferred to a new sample tube and the solvent was evaporated under nitrogen stream. The dried material was re-suspended in 100 µl of mobile phase. The resulting solution was then analyzed by UHPLC-MS/MS without further modifications.
Preparation of tissue samples was as follows: the tissues of interest were washed briefly with chilled water to remove traces of blood, if necessary, and cut into small pieces, keeping them on ice during all the operations. Then the samples were transferred to a tube and homogenized in purified water using the homogenizer TissueRuptor of Qiagen. In general, 300 µl of purified water was added to 50 mg of tissue. The homogenized samples were centrifuged at 10,000 x g for 15 minutes at 4°C to pellet cell debris, and then the supernatant were transferred to a clean tube in order to perform protein precipitation using a chilled solution of Acetonitrile:Methanol (50:50 v/v) and vortexed for 1 min. Before protein precipitation a fixed concentration (200 nM) of internal standard (Compound 4) was added in every sample. After centrifugation, the supernatant was separated from protein pellet and dried under nitrogen stream. 50 µl of mobile phase was used to re-suspend each dried sample. […]

[2] = #1: single I.P. administration, 45 mg/Kg, withdrawal 4 hours after administration
[3] = #1A: two I.P. administration, 45 mg/Kg, at distance of 48 hours, withdrawal 4 hours after last administration
[4] = #1B: 6 weeks of repeated I.P. administration, 45 mg/kg, every 48 hours, withdrawal 4 hours after last administration

CCCCc1cn(-c2ccc(-c3nnc(-c4ccccc4C(F)(F)F)o3)cc2)nn1 [Compound 5]
IC50 (K562 cell line): 20.3 µM
Adipose to plasma [1, 2]: 14.3
Breast to plasma [1, 2]: 42.9
Intestine to plasma [1, 2]: 5.8
Kidney to plasma [1, 2]: 23.1
Liver to plasma [1, 2]: 7.3
Lung to plasma [1, 2]: 12.6
Lymph node to plasma [1, 2]: 17.9
Plasma [1, 2]: 2099.8 ng/mL
Spleen to plasma [1, 2]: 26.1
Tumor to plasma [1, 2]: 11.3
Adipose to plasma [1, 3]: 31.8
Breast to plasma [1, 3]: 10.9
Intestine to plasma [1, 3]: 4.2
Kidney to plasma [1, 3]: 21.6
Liver to plasma [1, 3]: 12.9
Lung to plasma [1, 3]: 10.3
Lymph node to plasma [1, 3]: 137.7
Plasma [1, 3]: 2188.6 ng/mL
Spleen to plasma [1, 3]: 23.3
Tumor to plasma [1, 3]: 39.9
Adipose to plasma [1, 4]: 233.3
Breast to plasma [1, 4]: 18.5
Intestine to plasma [1, 4]: 10.9
Kidney to plasma [1, 4]: 18.3
Liver to plasma [1, 4]: 12.4
Lung to plasma [1, 4]: 9.6
Lymph node to plasma [1, 4]: 27.5
Plasma [1, 4]: 4658.9 ng/mL
Spleen to plasma [1, 4]: 21.4
Tumor to plasma [1, 4]: 14.9
Kp at 4 h ([1]; 45 mg/kg, #1: single I.P. administration, 45 mg/Kg, withdrawal 4 hours after administration): 0.5
Kp at 4 h ([1]; 45 mg/kg, #1A: two I.P. administration, 45 mg/Kg, at distance of 48 hours, withdrawal 4 hours after last administration): 1.1
Kp at 4 h ([1]; 45 mg/kg, #1B: 6 weeks of repeated I.P. administration, 45 mg/kg, every 48 hours, withdrawal 4 hours after last administration): 0.7
